Reference: patent US20260078103A1, “ISOQUINOLONES AS PI3K INHIBITORS” (OnKure, Inc., priority 2022, published 2026)
pEC50, pIC50: −log10 of the molar value. Where two headings read alike, the source gives them in different places.

What was measured:
Type in all cases: cell-based
[1] = system: phosphorylation of AKT (pAKT) in T47D cells expressing mutant PI3Ka (H1047R); assay: In vitro cell pAKT (Ser473) HTRF, T47D cells; details: cellular pAKT, T47D cells, mutant PI3Ka (H1047R), 6 hours, read-out: Avg T-47D IC50
Outline: (§1)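 Cells seeded on plates pre-stamped with 10-point compound dilutions, then grown 6 h at 37 °C (T47D in RPMI/10% FBS/insulin; SKBR3 in McCoy's 5a/10% FBS). Lysates read for pAKT Ser473 by HTRF after overnight antibody incubation. Inhibition normalised to 0.1% DMSO and 10 uM alpelisib; IC50 by four-parameter fit.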

[2] = system: phosphorylation of AKT (pAKT) in SKBR3 cells express WT PI3Ka; assay: In vitro cell pAKT (Ser473) HTRF, SKBR3 cells; details: cellular pAKT
Outline: as §1

[3] = system: SKBR3 cells express WT PI3Ka; assay: In vitro cell proliferation, SKBR3 cells (CellTiter-Glo); details: inhibition of proliferation
Outline: (§2)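 T47D cells in RPMI/10% FBS/insulin (0.2 units/mL) or SKBR3 in McCoys 5a/10% FBS, 1,500 cells/well, grown 72 h at 37 °C with 10-point compound dilutions. CellTiter-Glo luminescence; % inhibition normalised to 0.1% DMSO and 10 uM Alpelisib, EC50 from four-parameter curve fit.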

[4] = system: T47D cells expressing mutant PI3Ka (H1047R); assay: In vitro cell proliferation, T47D cells (CellTiter-Glo); details: inhibition of proliferation, read-out: Avg T-47D EC50
Outline: as §2

Row | SMILES | pIC50 ([1]; Homo sapiens, T47D, 6 h) | pIC50 ([2]; Homo sapiens, SK-BR-3, 6 h) | pEC50 ([3]; Homo sapiens, SK-BR-3, 72 h) | pEC50 ([4]; Homo sapiens, T47D, 72 h) | pIC50 [1] | pIC50 ([2]; 6 hours) | pEC50 ([3]; 72 hours) | pEC50 ([4]; 72 hours)
1 | Cc1cc([C@@H](C)Nc2ccccc2C(=O)O)c2cc(N3CC[C@]4(CCCN(CC(F)(F)F)C4)C3)n(C)c(=O)c2c1 [Example 99] | 6.30 to 9.00 | < 4.82 | 4.82 to 5.70 | 6.30 to 9.00 | – | – | – | –
2 | Cc1cc(C(C)Nc2ccccc2C(=O)O)c2cc(N3CC4CCCC(C4)C3)n(C)c(=O)c2c1 (centres unmarked) [Example 116] | – | – | – | – | 5.70 to 6.30 | < 4.82 | < 4.82 | 5.70 to 6.30
3 | Cc1cc([C@@H](C)Nc2ccc(Cl)nc2C(=O)O)c2cc(-c3ccc(C)nc3)n(C)c(=O)c2c1 [Example 130] | 6.30 to 9.00 | 4.82 to 5.70 | 4.82 to 5.70 | 6.30 to 9.00 | – | – | – | –
4 | Cc1cc(C(C)Nc2ccccc2C(=O)O)c2cc(N3CCN4CC(F)(F)C[C@@H]4C3)n(C)c(=O)c2c1 (some centres unmarked) [Example 140] | 6.30 to 9.00 | < 4.82 | < 4.82 | 6.30 to 9.00 | – | – | – | –
5 | COc1cccc(N2CCN(c3cc4c([C@@H](C)Nc5ccccc5C(=O)O)cc(C)cc4c(=O)n3C)CC2)c1 [Example 147] | 6.30 to 9.00 | 4.82 to 5.70 | < 4.82 | 6.30 to 9.00 | – | – | – | –
6 | Cc1cc([C@@H](C)Nc2ccc(Cl)nc2C(=O)O)c2cc(N3CCN(C4COC4)CC3)n(C)c(=O)c2c1 [Example 148] | 5.70 to 6.30 | < 4.82 | < 4.82 | 5.70 to 6.30 | – | – | – | –
7 | Cc1cc([C@@H](C)Nc2ccccc2C(=O)O)c2cc(N3CC(c4ccccn4)C3)n(C)c(=O)c2c1 [Example 152] | 6.30 to 9.00 | < 4.82 | < 4.82 | 5.70 to 6.30 | – | – | – | –
8 | Cc1cc([C@@H](C)Nc2ccccc2C(=O)O)c2cc(N3CCN(CC4OCCO4)CC3)n(C)c(=O)c2c1 [Example 157] | 6.30 to 9.00 | < 4.82 | < 4.82 | 6.30 to 9.00 | – | – | – | –
9 | CON1CCN(c2cc3c([C@@H](C)Nc4ccccc4C(=O)O)cc(C)cc3c(=O)n2C)CC1 [Example 158] | 6.30 to 9.00 | < 4.82 | < 4.82 | 6.30 to 9.00 | – | – | – | –
10 | Cc1cc(C(C)Nc2ccccc2C(=O)O)c2cc(C#Cc3cccc(C#N)c3)n(C)c(=O)c2c1 (centres unmarked) [Example 159] | – | – | – | – | 5.70 to 6.30 | < 4.82 | < 4.82 | 4.82 to 5.70
11 | Cc1cc([C@@H](C)Nc2ccccc2C(=O)O)c2cc(N3CCN(c4cccc(Cl)c4)CC3)n(C)c(=O)c2c1 [Example 160] | – | – | – | – | 6.30 to 9.00 | < 4.82 | < 4.82 | 6.30 to 9.00
12 | Cc1cc([C@@H](C)Nc2ccccc2C(=O)O)c2cc(N3CCN(c4cccc(C#N)c4)CC3)n(C)c(=O)c2c1 [Example 161] | – | – | – | – | 6.30 to 9.00 | 4.82 to 5.70 | 4.82 to 5.70 | 6.30 to 9.00
13 | Cc1cc([C@@H](C)Nc2ccccc2C(=O)O)c2cc(N3CCN(CC(F)F)CC3)n(C)c(=O)c2c1 [Example 162] | – | – | – | – | 6.30 to 9.00 | 4.82 to 5.70 | < 4.82 | 6.30 to 9.00
14 | Cc1cc([C@@H](C)Nc2ccccc2C(=O)O)c2cc(N3CCC(C)(C#N)CC3)n(C)c(=O)c2c1 [Example 164] | – | – | – | – | 6.30 to 9.00 | 4.82 to 5.70 | 4.82 to 5.70 | 6.30 to 9.00
15 | Cc1cc([C@@H](C)Nc2ccccc2C(=O)O)c2cc(N3CC(C)(C#N)C3)n(C)c(=O)c2c1 [Example 165] | – | – | – | – | 6.30 to 9.00 | < 4.82 | < 4.82 | 5.70 to 6.30
16 | Cc1cc(C(C)Nc2ccccc2C(=O)O)c2cc(N3CC4(CCN(CC(F)(F)F)C4)C3)n(C)c(=O)c2c1 (centres unmarked) [Example 171] | – | – | – | – | 6.30 to 9.00 | < 4.82 | < 4.82 | 5.70 to 6.30
17 | Cc1cc(C(C)Nc2ccccc2C(=O)O)c2cc(N3CC4(CCN(CC(F)(F)F)CC4)C3)n(C)c(=O)c2c1 (centres unmarked) [Example 172] | – | – | – | – | 6.30 to 9.00 | < 4.82 | < 4.82 | 6.30 to 9.00
18 | Cc1cc([C@@H](C)Nc2ccccc2C(=O)O)c2cc(N3CCN(Cc4ccccn4)CC3)n(C)c(=O)c2c1 [Example 175] | 6.30 to 9.00 | < 4.82 | 4.82 to 5.70 | 6.30 to 9.00 | – | – | – | –
19 | Cc1cc([C@@H](C)Nc2ccccc2C(=O)O)c2cc(N3CCN(Cc4cccc(C)n4)CC3)n(C)c(=O)c2c1 [Example 176] | 6.30 to 9.00 | < 4.82 | 4.82 to 5.70 | 6.30 to 9.00 | – | – | – | –
20 | Cc1cc([C@@H](C)Nc2ccccc2C(=O)O)c2cc(N3CC(C)(c4ccccc4)C3)n(C)c(=O)c2c1 [Example 179] | 6.30 to 9.00 | < 4.82 | < 4.82 | 6.30 to 9.00 | – | – | – | –
21 | COC1CN(c2cc3c([C@@H](C)Nc4ccccc4C(=O)O)cc(C)cc3c(=O)n2C)C1 [Example 180] | 6.30 to 9.00 | < 4.82 | < 4.82 | 6.30 to 9.00 | – | – | – | –
22 | Cc1cc([C@@H](C)Nc2ccccc2C(=O)O)c2cc(N3CC4(CN(CC(F)(F)F)C4)C3)n(C)c(=O)c2c1 [Example 184] | 6.30 to 9.00 | < 4.82 | < 4.82 | 5.70 to 6.30 | – | – | – | –
23 | Cc1cc([C@@H](C)Nc2ccccc2C(=O)O)c2cc(N3CCC4(CN(CC(F)(F)F)C4)C3)n(C)c(=O)c2c1 [Example 185] | 6.30 to 9.00 | 4.82 to 5.70 | < 4.82 | 6.30 to 9.00 | – | – | – | –
24 | Cc1cc([C@@H](C)Nc2ccccc2C(=O)O)c2cc(N3CCN(c4ccccn4)CC3)n(C)c(=O)c2c1 [Example 186] | 6.30 to 9.00 | 4.82 to 5.70 | 4.82 to 5.70 | 6.30 to 9.00 | – | – | – | –
25 | Cc1cc([C@@H](C)Nc2ccccc2C(=O)O)c2cc(N3CCN(c4ccnc(C)n4)CC3)n(C)c(=O)c2c1 [Example 187] | 6.30 to 9.00 | < 4.82 | 4.82 to 5.70 | 6.30 to 9.00 | – | – | – | –
26 | Cc1cc([C@@H](C)Nc2ccccc2C(=O)O)c2cc(N3CCN(c4cccnc4C#N)CC3)n(C)c(=O)c2c1 [Example 188] | 6.30 to 9.00 | 5.70 to 6.30 | 4.82 to 5.70 | 6.30 to 9.00 | – | – | – | –
